# Several values for one entry are separate records, joined by “and”; a condition that tells them apart may be missing. Equal values may be shown once. Marks after values point to notes of the source that are not given here.
# Test system: normally hatched blastocysts from mice
# Assay: Thawed recovery rate of normally hatched mouse blastocysts incubated with E-64d before programmed freezing
# Assay type: cell-based
# Conditions: for the thawed recovery rate (%): 2 h incubation before freezing, counted after 24-hour recovery, mean ± SD
# Procedure: Female mice with pale pink vulvas were randomized and intraperitoneally injected with pregnant mare serum gonadotrophin (PMSG) at a dosage of 10 IU/mouse. After 48 hours, the female mice were further injected with human chorionic gonadotropin (hCG) at a dosage of 10 IU/mouse, and then were immediately housed in a cage with adult male mice at a ratio of 1:1 overnight for mating. The mice were checked for mating at 8 a.m. next day and injected with anti-PMSG (A-PMSG) at a dosage of 10 IU/mouse once the vaginal suppository was observed. The mice were sacrificed at 9 a.m. on Day 5 after the vaginal suppository was observed. The uteruses on both sides of the mice were removed and flushed with the PBS working solution to obtain normally hatched blastocysts.
# The normally hatched blastocysts as obtained (about 100 blastocysts) were rinsed with 100 μl PBS solution for three times and then with 100 μl CZB working solution for another three times. Afterwards, the blastocysts were transferred into drops of the E-64d-CZB working solutions at 0, 0.5, 1, 1.5, 2, 3, 5, and 10 μmol/L, and then incubated in vitro in an incubator at 37° C., 5% CO2 in air, and 100% humidity for 2 hours.
# The incubated embryos were washed twice with the PBS working solution, then subjected to PBS removal through a three-step process, and equilibrated for 5 min in a freezing solution (Bioniche, ViGRO™, ETHYLENE GLYCOL FREEZE (with Sucrose), Lot:150206-2P). Afterwards, the embryos were placed in 0.25 ml plastic straws. Then the straws containing the embryos were placed in a control rate freezer, cooled to −5° C. at a rate of 1° C./min, and then equilibrated for 10 min. During equilibration, the straws containing the embryos were clamped with pre-cooled forceps at the upper end for 3-5 seconds, thereby the freezing solution forming ice crystals, that is to say, ice seeding was completed. The straws containing the embryos were equilibrated for another 10 minutes, and then cooled down to −35° C. at a rate of 0.3° C./min. Subsequently, the frozen straws were placed in liquid nitrogen.
# During thawing, the frozen straws were removed from the liquid nitrogen, gently shaken at room temperature for 5-10 seconds, placed in water at 35° C. for 10-15 seconds, and then removed from the water. The plugs at both ends of the straws were cut off, and then the embryos in the straws were placed in watch glasses, and subjected to the removal of the freezing solution through a three-step process. After recovery by thawing, the embryos were placed into drops of equilibrated fresh CZB for 24-hour recovery. After 24 hours, the thawed recovery rate was counted.
# The three-step process for PBS removal as mentioned above was specifically as follows. Before the embryos were immersed in the freezing solution and then placed in straws for freezing, they were washed with 100 μl of the drops of the following mixed solutions sequentially (3-5 min for each mixed solution): the freezing solution ⅓+PBS ⅔, the freezing solution ½+PBS ½, and the freezing solution ⅔+PBS ⅓.
# The three-step process for the removal of the freezing solution as mentioned above was specifically as follows. The embryos were washed with 100 μl of the drops of the following mixed solutions sequentially (3-5 min for each mixed solution): the freezing solution ⅔+PBS ⅓, the freezing solution ½+PBS ½, and the freezing solution ⅓+PBS ⅔.
# All the experimental data was subjected to Chi-square analysis by SPSS 21.0 statistical software.
smiles,measurement,setting,value
"CCOC(=O)[C@H]1O[C@@H]1C(=O)N[C@@H](CC(C)C)C(=O)NCCC(C)C [E-64d, ethyl (2S,3S)-3-[[(2S)-4-methyl-1-(3-methylbutylamino)-1-oxopentan-2-yl]carbamoyl]oxirane-2-carboxylate]",the thawed recovery rate (%),E-64d 0.5 μmol/L in CZB medium,75.35 ± 3.51^b %
same,the thawed recovery rate (%),E-64d 1 μmol/L in CZB medium,80.67 ± 5.40^Aa %
same,the thawed recovery rate (%),E-64d 1.5 μmol/L in CZB medium,79.45 ± 4.28^Aa %
same,the thawed recovery rate (%),E-64d 2 μmol/L in CZB medium,78.65 ± 2.56^b %
same,the thawed recovery rate (%),E-64d 3 μmol/L in CZB medium,76.26 ± 5.32^b %
same,thawed recovery rate compared with the control (in words),E-64d 5 μmol/L,nearly comparable to that in absence of the inhibitor
same,the thawed recovery rate (%),E-64d 5 μmol/L in CZB medium,72.64 ± 2.13^B %
same,decrease of the thawed recovery rate as compared with the control,E-64d 10 μmol/L,about 15%
same,the thawed recovery rate (%),E-64d 10 μmol/L in CZB medium,62.58% and 62.58 ± 3.72^B %
same,thawed recovery rate compared with the control (in words),E-64d 0.5-3 μmol/L,improved to different extents as compared with the control
same,improvement of the thawed recovery rate as compared with the control,E-64d 1 or 1.5 μmol/L,about 10%
